In patent publication US10189843B2, “Fused pyrazole derivative having autotaxin inhibitory activity” (The University of Tokyo, priority 2014, dated 2019):

These compounds were tested against T1, Human autotaxin enzyme (Homo sapiens, UniProt Q13822) (assay: Evaluation of autotaxin inhibitor, Method C (18:0 Lyso PC substrate, choline assay, Resorufin fluorescence)). Settings: Method C (Test Example 3), read-out: Inhibitory activity (enzyme inhibitory activity, IC50).
T1 construct: purchased R&D System
Assay type: biochemical
Procedure, shortened: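 Recombinant human autotaxin with compound and 200 μM 18:0 Lyso PC (stock) in Tris-HCl pH 7.5, NaCl, MgCl2, Triton X-100, 2 h RT. Released choline detected via choline oxidase/peroxidase/Amplex-type reagent, 20 min, resorufin fluorescence 531/598 nm; % inhibition vs no-compound and no-enzyme controls, concentration-response curve.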

| Structure (SMILES) | IC50 |
| --- | --- |
| O=C1NCC(COCC(F)(F)C(F)F)n2nc(-c3ccc(Cl)cc3)cc21 (stereo not shown) [Compound I-0196] | 100 to 1000 nM |
| CCCCC1CNC(=O)c2cc(-c3ccc(Cl)cc3)nn21 (stereo not shown) [Compound I-0197] | ≥ 1000 nM |
| CCOCC1CNC(=O)c2cc(-c3ccc(Cl)cc3)nn21 (stereo not shown) [Compound I-0198] | ≥ 1000 nM |
| CC(C)OCC1CNC(=O)c2cc(-c3ccc(Cl)cc3)nn21 (stereo not shown) [Compound I-0199] | ≥ 1000 nM |
| CCCCCC1CN(c2ccncc2)C(=O)c2cc(-c3ccc(Cl)cc3)nn21 (stereo not shown) [Compound I-0200] | ≥ 1000 nM |
| CCCCC1CN(Cc2ccc(C#N)cc2)C(=O)c2cc(-c3ccc(C#N)cc3)nn21 (stereo not shown) [Compound I-0201] | 10 to 100 nM |
| CCCCCC1CN(c2cccc(CC(=O)O)c2)C(=O)c2cc(-c3ccc(Cl)cc3)nn21 (stereo not shown) [Compound I-0202] | ≥ 1000 nM |
| CCCCCC1CN(c2cccc(OCC(=O)O)c2)C(=O)c2cc(-c3ccc(Cl)cc3)nn21 (stereo not shown) [Compound I-0203] | ≥ 1000 nM |
| CCCCC1CN(Cc2ccc(C#N)cc2)C(=O)c2cc(-c3ccc(Cl)cc3C=O)nn21 (stereo not shown) [Compound I-0204] | 10 to 100 nM |
| CCCCC1CN(Cc2ccc(C#N)cc2)C(=O)c2cc(-c3ccc(OC)cc3)nn21 (stereo not shown) [Compound I-0205] | 100 to 1000 nM |
| CCCCC1CN(Cc2ccc(C#N)cc2)C(=O)c2cc(-c3ccc(OC)c(CO)c3)nn21 (stereo not shown) [Compound I-0206] | ≥ 1000 nM |
| CCCCC1CN(Cc2ccc(C#N)cc2)C(=O)c2cc(-c3ccc(Cl)cc3CO)nn21 (stereo not shown) [Compound I-0207] | 10 to 100 nM |
| CCCCC1CN(CC(=O)N(C)CC#N)C(=O)c2cc(-c3ccc(Cl)cc3)nn21 (stereo not shown) [Compound I-0208] | 10 to 100 nM |
| CCCCC1CN(CC(=O)N(C)CCC#N)C(=O)c2cc(-c3ccc(Cl)cc3)nn21 (stereo not shown) [Compound I-0209] | 10 to 100 nM |
| CCCCC1CN(CC(=O)N2CCCC(C(N)=O)C2)C(=O)c2cc(-c3ccc(Cl)cc3)nn21 (stereo not shown) [Compound I-0210] | 10 to 100 nM |
| CCCCC1CN(CC(=O)N(CC#N)CC#N)C(=O)c2cc(-c3ccc(Cl)cc3)nn21 (stereo not shown) [Compound I-0211] | 10 to 100 nM |
| CCCCC1CN(CC(=O)N(CC)CCC#N)C(=O)c2cc(-c3ccc(Cl)cc3)nn21 (stereo not shown) [Compound I-0214] | 10 to 100 nM |
| CCCCC1CN(CC(=O)N2CCN(C(N)=O)CC2)C(=O)c2cc(-c3ccc(Cl)cc3)nn21 (stereo not shown) [Compound I-0217] | 100 to 1000 nM |
| CCCCC1CN(CC(=O)N2CCC(C#N)CC2)C(=O)c2cc(-c3ccc(Cl)cc3)nn21 (stereo not shown) [Compound I-0220] | 100 to 1000 nM |

| Structure (SMILES) | IC50 |
| --- | --- |
| CCCCC1CN(CC(=O)N[C@@H]2CCC[C@H]2O)C(=O)c2cc(-c3ccc(Cl)cc3)nn21 (stereo partly shown) [Compound I-0221] | 100 to 1000 nM |
| CCCCC1CN(CC(=O)N2[C@H](C)COC[C@@H]2C)C(=O)c2cc(-c3ccc(Cl)cc3)nn21 (stereo partly shown) [Compound I-0223] | 100 to 1000 nM |
| CCCCC1CN(CC(=O)NCc2cccc(O)c2)C(=O)c2cc(-c3ccc(Cl)cc3)nn21 (stereo not shown) [Compound I-0226] | 100 to 1000 nM |
| CCCCC1CN(CC(=O)N2CCC[C@H]2C)C(=O)c2cc(-c3ccc(Cl)cc3)nn21 (stereo partly shown) [Compound I-0227] | 100 to 1000 nM |
| CCCCC1CN(CC(=O)N(C)CC(O)c2ccccc2)C(=O)c2cc(-c3ccc(Cl)cc3)nn21 (stereo not shown) [Compound I-0228] | 100 to 1000 nM |
| CCCCC1CN(CC(=O)N(CCC#N)CCC#N)C(=O)c2cc(-c3ccc(Cl)cc3)nn21 (stereo not shown) [Compound I-0235] | 10 to 100 nM |
| CCCCC1CN(CC(=O)NCc2ccnc(O)c2)C(=O)c2cc(-c3ccc(Cl)cc3)nn21 (stereo not shown) [Compound I-0236] | ≥ 1000 nM |
| CCCCC1CN(CC(=O)N2[C@@H]3CC[C@H]2C[C@@H](O)C3)C(=O)c2cc(-c3ccc(Cl)cc3)nn21 (stereo partly shown) [Compound I-0238] | 100 to 1000 nM |
| CCCCC1CN(CC(=O)N2CCOC(C#N)C2)C(=O)c2cc(-c3ccc(Cl)cc3)nn21 (stereo not shown) [Compound I-0239] | 10 to 100 nM |
| CCCCC1CN(CC(=O)N2CCO[C@H](C)C2)C(=O)c2cc(-c3ccc(Cl)cc3)nn21 (stereo partly shown) [Compound I-0240] | 100 to 1000 nM |
| CCCCC1CN(CC(=O)N2CCCC[C@H]2C)C(=O)c2cc(-c3ccc(Cl)cc3)nn21 (stereo partly shown) [Compound I-0241] | 100 to 1000 nM |
| CCCCC1CN(CC(=O)N2CCC[C@H](C)C2)C(=O)c2cc(-c3ccc(Cl)cc3)nn21 (stereo partly shown) [Compound I-0242] | 100 to 1000 nM |
| CCCCC1CN(CC(=O)N2CCC(OCCO)CC2)C(=O)c2cc(-c3ccc(Cl)cc3)nn21 (stereo not shown) [Compound I-0243] | 100 to 1000 nM |
| CCCCC1CN(CC(=O)N[C@@H]2CCC[C@H]2O)C(=O)c2cc(-c3ccc(Cl)cc3)nn21 (stereo partly shown) [Compound I-0245] | 100 to 1000 nM |
| CCCCC1CN(CC(=O)N2CCC[C@@H]2C)C(=O)c2cc(-c3ccc(Cl)cc3)nn21 (stereo partly shown) [Compound I-0246] | 10 to 100 nM |
| CCCCC1CN(CC(=O)N2CCCC[C@@H]2C)C(=O)c2cc(-c3ccc(Cl)cc3)nn21 (stereo partly shown) [Compound I-0247] | 10 to 100 nM |
| CCCCC1CN(CC(=O)N2CCC[C@@H](C)C2)C(=O)c2cc(-c3ccc(Cl)cc3)nn21 (stereo partly shown) [Compound I-0248] | 100 to 1000 nM |
| CCCOCC1CN(CC(=O)OC(C)(C)C)C(=O)c2cc(-c3ccc(Cl)cc3)nn21 (stereo not shown) [Compound I-0250] | 10 to 100 nM |

Other lines, results leading:

| IC50 | Structure (SMILES) |
| --- | --- |
| 100 to 1000 nM | CCCCC1CN(CC(=O)NCCOCCO)C(=O)c2cc(-c3ccc(Cl)cc3)nn21 (stereo not shown) [Compound I-0212] |
| 10 to 100 nM | CCCCC1CN(CC(=O)NCC#N)C(=O)c2cc(-c3ccc(Cl)cc3)nn21 (stereo not shown) [Compound I-0213] |
| 100 to 1000 nM | CCCCC1CN(CC(=O)NCC(N)=O)C(=O)c2cc(-c3ccc(Cl)cc3)nn21 (stereo not shown) [Compound I-0215] |
| 100 to 1000 nM | CCCCC1CN(CC(=O)NCC(O)C(F)(F)F)C(=O)c2cc(-c3ccc(Cl)cc3)nn21 (stereo not shown) [Compound I-0216] |
| 100 to 1000 nM | CCCCC1CN(CC(=O)NCCO)C(=O)c2cc(-c3ccc(Cl)cc3)nn21 (stereo not shown) [Compound I-0218] |
| 100 to 1000 nM | CCCCC1CN(CC(=O)NCC(O)CO)C(=O)c2cc(-c3ccc(Cl)cc3)nn21 (stereo not shown) [Compound I-0219] |
| 100 to 1000 nM | CCCCC1CN(CC(=O)NCCC(N)=O)C(=O)c2cc(-c3ccc(Cl)cc3)nn21 (stereo not shown) [Compound I-0222] |
| 100 to 1000 nM | CCCCC1CN(CC(=O)NCC(=O)NC)C(=O)c2cc(-c3ccc(Cl)cc3)nn21 (stereo not shown) [Compound I-0224] |
| 100 to 1000 nM | CCCCC1CN(CC(=O)NCCC(=O)N(C)C)C(=O)c2cc(-c3ccc(Cl)cc3)nn21 (stereo not shown) [Compound I-0225] |
| 100 to 1000 nM | CCCCC1CN(CC(=O)NCC(C)(C)O)C(=O)c2cc(-c3ccc(Cl)cc3)nn21 (stereo not shown) [Compound I-0229] |
| 10 to 100 nM | CCCCC1CN(CC(=O)NCCC#N)C(=O)c2cc(-c3ccc(Cl)cc3)nn21 (stereo not shown) [Compound I-0230] |
| ≥ 1000 nM | CCCCC1CN(CC(=O)NC(C#N)C#N)C(=O)c2cc(-c3ccc(Cl)cc3)nn21 (stereo not shown) [Compound I-0231] |
| 10 to 100 nM | CCCCC1CN(CC(=O)NCc2nn[nH]n2)C(=O)c2cc(-c3ccc(Cl)cc3)nn21 (stereo not shown) [Compound I-0232] |
| 10 to 100 nM | CCCCC1CN(CC(=O)NCc2cc(=O)[nH]o2)C(=O)c2cc(-c3ccc(Cl)cc3)nn21 (stereo not shown) [Compound I-0233] |
| 100 to 1000 nM | CCCCC1CN(CC(=O)NCCc2cn[nH]c2)C(=O)c2cc(-c3ccc(Cl)cc3)nn21 (stereo not shown) [Compound I-0234] |
| 100 to 1000 nM | CCCCC1CN(CC(=O)NCC2(CO)COC2)C(=O)c2cc(-c3ccc(Cl)cc3)nn21 (stereo not shown) [Compound I-0237] |
| 100 to 1000 nM | CCCCC1CN(CC(=O)NCCCC#N)C(=O)c2cc(-c3ccc(Cl)cc3)nn21 (stereo not shown) [Compound I-0244] |
| 10 to 100 nM | CCCCC1CN(CC(=O)OC)C(=O)c2cc(-c3ccc(Cl)cc3)nn21 (stereo not shown) [Compound I-0249] |
